# From ChEMBL document CHEMBL1140924, “Biomedical application of orexin/hypocretin receptor ligands in neuroscience” (J Med Chem, 2009)
# How the values were obtained:
# Orexin receptor type 2 [1] = biological target: T1, Orexin receptor type 2 (Homo sapiens, UniProt O43614); test: Antagonist activity at OX2 receptor by FLIPR; type: functional
# T1 sequence (O43614 whole entry): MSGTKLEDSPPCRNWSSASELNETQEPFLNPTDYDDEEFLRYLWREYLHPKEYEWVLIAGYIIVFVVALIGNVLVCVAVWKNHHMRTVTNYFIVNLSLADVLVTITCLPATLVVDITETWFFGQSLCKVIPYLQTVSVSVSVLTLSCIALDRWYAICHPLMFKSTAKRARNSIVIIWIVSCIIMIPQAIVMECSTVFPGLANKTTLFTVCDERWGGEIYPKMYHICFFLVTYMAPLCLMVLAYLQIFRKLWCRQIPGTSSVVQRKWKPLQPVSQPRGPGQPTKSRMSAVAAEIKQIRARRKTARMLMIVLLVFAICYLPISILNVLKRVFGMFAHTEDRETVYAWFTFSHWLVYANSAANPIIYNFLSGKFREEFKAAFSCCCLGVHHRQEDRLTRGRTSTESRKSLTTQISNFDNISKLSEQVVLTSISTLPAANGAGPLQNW
# [2] = biological target: T2, Orexin/Hypocretin receptor type 1 (Homo sapiens, UniProt O43613); test: Antagonist activity at OX1 receptor by FLIPR; type: functional
# T2 sequence (O43613 whole entry): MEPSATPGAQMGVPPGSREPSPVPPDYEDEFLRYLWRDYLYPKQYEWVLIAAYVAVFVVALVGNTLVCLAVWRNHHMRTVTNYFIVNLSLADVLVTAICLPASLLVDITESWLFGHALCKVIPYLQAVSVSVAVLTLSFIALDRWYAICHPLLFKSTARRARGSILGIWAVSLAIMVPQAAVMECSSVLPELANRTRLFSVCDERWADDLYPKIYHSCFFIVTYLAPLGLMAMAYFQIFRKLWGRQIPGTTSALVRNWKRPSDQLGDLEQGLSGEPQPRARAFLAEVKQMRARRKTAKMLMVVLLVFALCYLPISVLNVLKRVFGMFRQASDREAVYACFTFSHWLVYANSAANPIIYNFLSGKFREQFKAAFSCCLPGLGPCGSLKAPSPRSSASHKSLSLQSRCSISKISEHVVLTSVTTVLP
# [3] = Selectivity for OX1 receptor over OX2 receptor
# [4] = biological target: T2, Orexin/Hypocretin receptor type 1; test: Binding affinity to OX1 receptor
# [5] = biological target: T3, Orexin receptor type 2 (Homo sapiens) (UniProt O43614); test: Antagonist activity at human OX2 receptor expressed in CHO cells assessed as inhibition of receptor-mediated calcium response by FLIPR; type: functional, cell-based
# T3 sequence (whole entry): T1 sequence (O43614 whole entry)
# [6] = biological target: T4, Orexin/Hypocretin receptor type 1 (Homo sapiens) (UniProt O43613); test: Antagonist activity at human OX1 receptor expressed in CHO cells assessed as inhibition of receptor-mediated calcium response by FLIPR; type: functional, cell-based
# T4 sequence (whole entry): T2 sequence (O43613 whole entry)
# [7] = biological target: T2, Orexin/Hypocretin receptor type 1; test: Antagonist activity at human OX1 receptor; type: functional
# Orexin receptor type 2 [8] = biological target: T1, Orexin receptor type 2; test: Antagonist activity at human OX2 receptor; type: functional
# [9] = Aqueous solubility at pH 7; type: physicochemical
# [10] = Inhibition of neuropeptide Y receptor at 10 uM
# [11] = Inhibition of galanin receptor at 10 uM
# [12] = biological target: T5, Neuromedin-K receptor (Homo sapiens) (UniProt P29371); test: Inhibition of neurokinin-3 receptor at 10 uM
# T5 sequence (whole entry): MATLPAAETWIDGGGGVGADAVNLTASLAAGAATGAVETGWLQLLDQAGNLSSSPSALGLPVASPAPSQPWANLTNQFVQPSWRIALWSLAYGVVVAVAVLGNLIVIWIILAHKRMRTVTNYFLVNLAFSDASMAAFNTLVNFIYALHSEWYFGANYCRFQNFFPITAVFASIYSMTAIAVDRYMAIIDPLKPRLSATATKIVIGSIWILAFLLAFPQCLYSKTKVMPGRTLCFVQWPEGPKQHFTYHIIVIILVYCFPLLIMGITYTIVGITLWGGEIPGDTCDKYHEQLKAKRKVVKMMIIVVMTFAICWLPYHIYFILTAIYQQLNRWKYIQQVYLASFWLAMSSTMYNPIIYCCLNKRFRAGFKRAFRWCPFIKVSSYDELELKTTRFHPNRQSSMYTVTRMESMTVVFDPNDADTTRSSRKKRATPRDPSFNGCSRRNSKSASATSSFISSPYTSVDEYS
# Orexin receptor type 2 [13] = biological target: T1, Orexin receptor type 2; test: Binding affinity to OX2 receptor
# [14] = biological target: T6, Neuropeptide Y receptor type 1 (Homo sapiens) (UniProt P25929); test: Inhibition of NPY1 receptor at 10 uM
# T6 sequence (whole entry): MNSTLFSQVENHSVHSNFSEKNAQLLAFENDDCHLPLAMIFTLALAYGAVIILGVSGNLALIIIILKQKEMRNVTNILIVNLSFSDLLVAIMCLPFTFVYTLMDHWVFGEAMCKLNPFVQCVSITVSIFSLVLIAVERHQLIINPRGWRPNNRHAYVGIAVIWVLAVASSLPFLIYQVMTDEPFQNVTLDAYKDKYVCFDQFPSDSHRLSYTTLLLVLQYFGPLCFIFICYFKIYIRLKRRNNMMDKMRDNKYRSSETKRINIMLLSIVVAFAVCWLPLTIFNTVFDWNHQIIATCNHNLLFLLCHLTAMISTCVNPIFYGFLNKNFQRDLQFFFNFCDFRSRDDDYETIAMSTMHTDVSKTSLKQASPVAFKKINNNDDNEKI
# [15] = biological target: Kappa-type opioid receptor (Homo sapiens) (UniProt P41145); test: Inhibition of kappa opioid receptor at 10 uM
# Sequence of Kappa-type opioid receptor (Homo sapiens) (P41145 whole entry): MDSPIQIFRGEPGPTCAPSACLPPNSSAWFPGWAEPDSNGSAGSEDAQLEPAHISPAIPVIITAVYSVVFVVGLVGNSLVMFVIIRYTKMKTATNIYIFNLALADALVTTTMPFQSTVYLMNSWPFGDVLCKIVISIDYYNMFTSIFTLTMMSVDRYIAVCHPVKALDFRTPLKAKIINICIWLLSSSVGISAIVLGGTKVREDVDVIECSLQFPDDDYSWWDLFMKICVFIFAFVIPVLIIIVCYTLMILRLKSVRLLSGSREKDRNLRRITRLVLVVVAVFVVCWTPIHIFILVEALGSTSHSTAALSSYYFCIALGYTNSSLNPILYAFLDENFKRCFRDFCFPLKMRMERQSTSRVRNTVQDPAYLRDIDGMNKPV
# [16] = Selectivity of Ki for OX1 receptor to Ki for OX2 receptor
smiles,measurement,setting,value
CCN(Cc1cc(C)n(C)n1)C(=O)CN(c1cc(N(C)C)ccc1Cl)S(=O)(=O)c1ccc(OC)c(OC)c1,IC50,Orexin receptor type 2 [1],4 nM
same,IC50,[2],6 nM
Cc1nc(C(=O)N2CCC[C@H]2Cc2nnc(-c3ccccc3)o2)c(-c2ccccc2F)s1,Ratio,[3],> 100
same,Kd,[4],5.13 nM
Cn1ccc2cc(NC(=O)Nc3ccnc4ccccc34)ccc21,pKb,[5],5.6
same,pKb,[6],7.5
CN(C)c1ccc(NC(=O)Nc2ccnc3c(F)ccc(F)c23)cc1,Ratio,[3],> 50
same,Kd,[4],4.47 nM
Cc1cc(NC(=O)Nc2ccc(N(C)C)cc2)c2cc(F)cc(F)c2n1,Ratio,[3],> 50
same,Kd,[4],26.9 nM
COc1cc2c(cc1OC)CN(C(=O)C(Cc1ccccc1)C(=O)c1cc(Cl)cc(Cl)c1)CC2 (racemic),IC50,[7],5.3 µM
same,IC50,Orexin receptor type 2 [8],36 nM
CCc1nc(OC)c2n1CCN([C@@H](C(=O)NC)c1ccccc1)[C@H]2CCc1ccc(C)c(F)c1,IC50,Orexin receptor type 2 [1],2 nM
same,IC50,[2],49 nM
CCN(Cc1ccn(C)n1)C(=O)CN(c1cc(N(C)C)ccc1Cl)S(=O)(=O)c1ccc(OC)c(OC)c1,IC50,Orexin receptor type 2 [1],7 nM
same,IC50,[2],12 nM
Cc1cccc(-c2sc(CCCO)nc2C(=O)N2C[C@H]3C[C@H]3[C@H]2CNC(=O)c2c(C)nc3sccn23)c1,IC50,Orexin receptor type 2 [1],17 nM
same,IC50,[2],19 nM
COc1cc2c(cc1OC)CN(C(=O)C(Cc1ccccc1)c1ccccc1)CC2 (racemic),solubility,[9],810 µg/mL
COc1cc2c(cc1OC)CN(C(=O)[C@@H](NCc1ccncc1)C(C)(C)C)CC2,inhibition,[10],< 30%
same,inhibition,[11],< 30%
CC1(C)OC[C@H](NC(=O)Nc2ccc(Br)cc2Br)[C@H](c2ccccc2)O1,inhibition,[12],< 40%
same,Ki,Orexin receptor type 2 [13],3.16 µM
same,inhibition,[14],< 40%
same,inhibition,[15],< 40%
same,Ratio,[16],600
CCc1nc(OC)c2n1CCN([C@@H](C(=O)NC)c1ccccc1)[C@H]2CCc1ccc(C)c(C)c1,IC50,Orexin receptor type 2 [1],4 nM
same,IC50,[2],5 nM
CNC1CCCC1CN[C@H](C(=O)N1CCc2cc(OC)c(OC)cc2C1)C(C)(C)C (stereo partly drawn),IC50,[7],3.6 µM
same,IC50,Orexin receptor type 2 [8],28 nM
CC1(C)OC[C@H](NC(=O)Nc2cccc(Br)c2)[C@H](c2ccccc2)O1,Ki,[4],1000 nM
same,Ki,Orexin receptor type 2 [13],> 10 µM
same,Ratio,[16],9
CCN(Cc1cccc(C)n1)C(=O)CN(c1cc(N(C)C)ccc1Cl)S(=O)(=O)c1ccc(OC)c(OC)c1,IC50,Orexin receptor type 2 [1],5 nM
same,IC50,[2],17 nM
Cc1cc(Br)ccc1NC(=O)N[C@H]1COC(C)(C)O[C@H]1c1ccccc1,Ki,[4],39.8 nM
same,Ki,Orexin receptor type 2 [13],> 10 µM
same,Ratio,[16],200
